The test system of this assay is tyrosinase. The experiment in a line: Determination of tyrosinase inhibitory effect (L-DOPA substrate, absorbance at 475 nm). The settings on record: comparison with arbutin, determined in a way described in Example 4.

Description: The activity of tyrosinase was determined at the wavelength of 475 nm and calculated from the decrease of the absorbance.
35 μl of the tyrosinase inhibitor extract of Example 1 and 35 μl of 80% propylene glycol were used as the test and control samples. The inhibition percent of the tyrosinase activity was calculated by the equation: Inhibition percentage (%) of the tyrosine activity=[1−(Absorbance of experiment sample)/(Absorbance of control sample)]×100%. The DOPA and tyrosinase solution (1000 units/ml in 16.7 mM potassium phosphate butter) used in the following experiments were purchased from Sigma Corp., USA.
15.1 of tyrosinase solutions was added to each (35 μl) of six samples of tyrosinase inhibitor extract of Example 1. The resultant solutions were maintained at 25. for 0, 1, 2, 3, 4, 5, 6 hours, respectively. 450.1 of L-DOPA substrate was added to each of the solutions.
15.1 of tyrosinase solutions was added to each (35 μl) of three samples of tyrosinase inhibitor extract of Example 1. The resultant solutions were maintained at 25., 37. and 50. for 1 hour, respectively. 450.1 of L-DOPA substrate was added to each of the solutions.
15.1 of tyrosinase solutions was added to each (35 μl) of five samples of tyrosinase inhibitor extract of Example 1. The resultant solutions were maintained at pH 4, 5, 6, 7 and 8 for 1 hour, respectively. […]

Turning to `OC[C@H]1O[C@@H](Oc2ccc(O)cc2)[C@H](O)[C@@H](O)[C@@H]1O` [Arbutin], the “% inhibitory Activity” value is 32+−0.0%.

The values above are taken from patent publication US7125572B2, “Tyrosinase inhibitor extract” (Kaoder Industry Company, Ltd., priority 2004, dated 2006).
